Reference: ChEMBL document CHEMBL1201862, “PubChem BioAssay data set” (2004)
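Where inhibition never reached the appropriate level, the endpoint shown equals the highest concentration tested. Otherwise, values were interpolated linearly from a five-concentration, 48-hour dose response in 96-well plates. GI50: concentration for 50% inhibition of growth.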 Calls of active or inactive are those of the source. Cut-off read from the data, not from the text of the source: active = GI50 up to about 1.1 µM and inactive = higher.

Columns and labels:
Assay in all cases: NCI-60 cell line screen, 48 h
A549 = system: A549
M14 = system: M14
DU-145 = system: DU-145
K562 = system: K562
BT-549 = system: BT-549
U-251 = system: U-251
UACC-62 = system: UACC-62
SF-268 = system: SF-268
HOP-62 = system: HOP-62
SW-620 = system: SW-620
OVCAR-4 = system: OVCAR-4
MDA-MB-435 = system: MDA-MB-435
NCI-H226 = system: NCI-H226
A498 = system: A498
SK-MEL-2 = system: SK-MEL-2
TK-10 = system: TK-10
MDA-MB-231 = system: MDA-MB-231
KM12 = system: KM12
UO-31 = system: UO-31
SK-MEL-28 = system: SK-MEL-28
786-0 = system: 786-0
OVCAR-5 = system: OVCAR-5
HCC 2998 = system: HCC 2998
OVCAR-3 = system: OVCAR-3
SF-295 = system: SF-295
SN12C = system: SN12C
MOLT-4 = system: MOLT-4
SNB-19 = system: SNB-19
Malme-3M = system: Malme-3M
LOX IMVI = system: LOX IMVI
NCI-H522 = system: NCI-H522
Hs-578T = system: Hs-578T
CCRF-CEM = system: CCRF-CEM
COLO 205 = system: COLO 205
T47D = system: T47D
PC-3 = system: PC-3
HCT-116 = system: HCT-116
NCI-H460 = system: NCI-H460
MDA-N = system: MDA-N
UACC-257 = system: UACC-257
OVCAR-8 = system: OVCAR-8
ACHN = system: ACHN
EKVX = system: EKVX
SF-539 = system: SF-539
HCT-15 = system: HCT-15
MCF7 = system: MCF7
CAKI-1 = system: CAKI-1
IGROV-1 = system: IGROV-1
RPMI-8226 = system: RPMI-8226
SK-OV-3 = system: SK-OV-3
SNB-75 = system: SNB-75
NCI-H23 = system: NCI-H23
HT-29 = system: HT-29
NCI/ADR-RES = system: NCI/ADR-RES
SR = system: SR
HL-60 = system: HL-60
SK-MEL-5 = system: SK-MEL-5
HOP-92 = system: HOP-92
RXF 393 = system: RXF 393

Compound: COC(=O)C1(Cc2ccc3c(c2)CCC3)Cc2ccccc2C1
- GI50 (A549): 32.5 µM (inactive)
- GI50 (M14): 39.7 µM (inactive)
- GI50 (DU-145): 39.4 µM (inactive)
- GI50 (K562): 11.6 µM (inactive)
- GI50 (BT-549): 69.5 µM (inactive)
- GI50 (U-251): 42.3 µM (inactive)
- GI50 (UACC-62): 36.1 µM (inactive)
- GI50 (SF-268): 41.9 µM (inactive)
- GI50 (HOP-62): 43.6 µM (inactive)
- GI50 (SW-620): 21.9 µM (inactive)
- GI50 (OVCAR-4): 16.8 µM (inactive)
- GI50 (MDA-MB-435): 25.2 µM (inactive)
- GI50 (NCI-H226): 29.9 µM (inactive)
- GI50 (A498): 32.8 µM (inactive)
- GI50 (SK-MEL-2): 25.9 µM (inactive)
- GI50 (TK-10): 82.8 µM (inactive)
- GI50 (MDA-MB-231): 35.1 µM (inactive)
- GI50 (KM12): 37.2 µM (inactive)
- GI50 (UO-31): 33.7 µM (inactive)
- GI50 (SK-MEL-28): 74.5 µM (inactive)
- GI50 (786-0): 37.8 µM (inactive)
- GI50 (OVCAR-5): 39.3 µM (inactive)
- GI50 (HCC 2998): 32 µM (inactive)
- GI50 (OVCAR-3): 40.7 µM (inactive)
- GI50 (SF-295): 27.4 µM (inactive)
- GI50 (SN12C): 30.1 µM (inactive)
- GI50 (MOLT-4): 6.73 µM (inactive)
- GI50 (SNB-19): 48.5 µM (inactive)
- GI50 (Malme-3M): 27.4 µM (inactive)
- GI50 (LOX IMVI): 14.7 µM (inactive)
- GI50 (NCI-H522): 22.5 µM (inactive)
- GI50 (Hs-578T): 48.3 µM (inactive)
- GI50 (CCRF-CEM): 11.5 µM (inactive)
- GI50 (COLO 205): 25 µM (inactive)
- GI50 (T47D): 24.6 µM (inactive)
- GI50 (PC-3): 16.1 µM (inactive)
- GI50 (HCT-116): 26.9 µM (inactive)
- GI50 (NCI-H460): 32.9 µM (inactive)
- GI50 (MDA-N): 29.9 µM (inactive)
- GI50 (UACC-257): 26.4 µM (inactive)
- GI50 (OVCAR-8): 50.6 µM (inactive)
- GI50 (ACHN): 41.9 µM (inactive)
- GI50 (EKVX): 36.1 µM (inactive)
- GI50 (SF-539): 34.4 µM (inactive)
- GI50 (HCT-15): 25.8 µM
- GI50 (MCF7): 32.8 µM (inactive)
- GI50 (CAKI-1): 36.2 µM (inactive)
- GI50 (IGROV-1): 48.3 µM (inactive)
- GI50 (RPMI-8226): 17.9 µM (inactive)
- GI50 (SK-OV-3): 29.7 µM (inactive)
- GI50 (SNB-75): 55.7 µM (inactive)
- GI50 (NCI-H23): 34.7 µM (inactive)
- GI50 (HT-29): 22.2 µM (inactive)
- GI50 (NCI/ADR-RES): 44.1 µM (inactive)
- GI50 (SR): 29.6 µM (inactive)
- GI50 (HL-60): 17 µM (inactive)

Compound: CC(=O)O[C@H]1C(=O)[C@@]2(C)[C@H]([C@H](OC(=O)c3ccccc3)[C@]3(O)C[C@H](OC(=O)[C@H](O)[C@@H](NC(=O)CC(C)(C)C)c4ccccc4)C(C)=C1C3(C)C)C1(OC(C)=O)CO[C@@H]1C[C@@H]2O (some centres undefined)
- GI50 (A549): 0.00371 µM (active)
- GI50 (SK-MEL-5): 0.00213 µM (active)
- GI50 (DU-145): 0.00836 µM (active)
- GI50 (HOP-92): 0.0106 µM (active)
- GI50 (K562): 0.00113 µM (active)
- GI50 (BT-549): 0.0968 µM (active)
- GI50 (U-251): 0.00441 µM (active)
- GI50 (UACC-62): 0.00158 µM (active)
- GI50 (SF-268): 0.0023 µM (active)
- GI50 (HOP-62): 0.00671 µM (active)
- GI50 (SW-620): 0.00171 µM (active)
- GI50 (OVCAR-4): > 10 µM (inactive)
- GI50 (MDA-MB-435): < 0.001 µM (active)
- GI50 (NCI-H226): 0.0194 µM (active)
- GI50 (A498): 0.303 µM (active)
- GI50 (SK-MEL-2): 0.002 µM (active)
- GI50 (TK-10): 0.047 µM (active)
- GI50 (MDA-MB-231): > 10 µM (inactive)
- GI50 (UO-31): 3.96 µM (inactive)
- GI50 (SK-MEL-28): < 0.001 µM (active)
- GI50 (786-0): 0.0251 µM (active)
- GI50 (HCC 2998): 0.00231 µM (active)
- GI50 (SF-295): 0.0208 µM (active)
- GI50 (SN12C): 0.00287 µM (active)
- GI50 (MOLT-4): 0.00296 µM (active)
- GI50 (SNB-19): 0.122 µM (active)
- GI50 (LOX IMVI): 0.00175 µM (active)
- GI50 (NCI-H522): 0.00143 µM (active)
- GI50 (Hs-578T): < 0.001 µM (active)
- GI50 (CCRF-CEM): 0.00171 µM (active)
- GI50 (RXF 393): 0.00796 µM (active)
- GI50 (COLO 205): 0.0014 µM (active)
- GI50 (T47D): 0.00908 µM (active)
- GI50 (PC-3): 0.00183 µM (active)
- GI50 (HCT-116): < 0.001 µM (active)
- GI50 (NCI-H460): 0.00235 µM (active)
- GI50 (MDA-N): 0.1 µM (active)
- GI50 (UACC-257): 0.00684 µM (active)
- GI50 (OVCAR-8): 0.00283 µM (active)
- GI50 (ACHN): 0.0764 µM (active)
- GI50 (EKVX): 0.193 µM (active)
- GI50 (SF-539): 0.00127 µM (active)
- GI50 (HCT-15): 0.223 µM
- GI50 (MCF7): < 0.001 µM (active)
- GI50 (CAKI-1): 0.128 µM (active)
- GI50 (IGROV-1): 0.00154 µM (active)
- GI50 (RPMI-8226): < 0.001 µM (active)
- GI50 (SK-OV-3): 0.00171 µM (active)
- GI50 (SNB-75): < 0.001 µM (active)
- GI50 (NCI-H23): 0.00237 µM (active)
- GI50 (HT-29): < 0.001 µM (active)
- GI50 (NCI/ADR-RES): 4.26 µM (inactive)
- GI50 (HL-60): 0.00105 µM (active)
